This note sets out measurements from patent US12173018B2, “Penicillin-binding protein inhibitors” (priority 2018, dated 2024).

In assay [1] the target is E. coli PBP3 (Escherichia coli (strain K12), UniProt P0AD68). The experiment in a line: E. coli PBP3 Bocillin-FL fluorescence polarization competition binding assay. In a few lines: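 FP competition: 1.5 μM PBP, 0.1 μM Bocillin-FL, cpd 0–1000 μM; 50 mM Hepes pH 8.0/300 mM NaCl/5% glycerol. Read 490/520 nm immediately after Bocillin-FL addition, 60 min. EC50 = cpd conc. lowering probe binding.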
Chain of E. coli PBP3 (P0AD68 whole entry): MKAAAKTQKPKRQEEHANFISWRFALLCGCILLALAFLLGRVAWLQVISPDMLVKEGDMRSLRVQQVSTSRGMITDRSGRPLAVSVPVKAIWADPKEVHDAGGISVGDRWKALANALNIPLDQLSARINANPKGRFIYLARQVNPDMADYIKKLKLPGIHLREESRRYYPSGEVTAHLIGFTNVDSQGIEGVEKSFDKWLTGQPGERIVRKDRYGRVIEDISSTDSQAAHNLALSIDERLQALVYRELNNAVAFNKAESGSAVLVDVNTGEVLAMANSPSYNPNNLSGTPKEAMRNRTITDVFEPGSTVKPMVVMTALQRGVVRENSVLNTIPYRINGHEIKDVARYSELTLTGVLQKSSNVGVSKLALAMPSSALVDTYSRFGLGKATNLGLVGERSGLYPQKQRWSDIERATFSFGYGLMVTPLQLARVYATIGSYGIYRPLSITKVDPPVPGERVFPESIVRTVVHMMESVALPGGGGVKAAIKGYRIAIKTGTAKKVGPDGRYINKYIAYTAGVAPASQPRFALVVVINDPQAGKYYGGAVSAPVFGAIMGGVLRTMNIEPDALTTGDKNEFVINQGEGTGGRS

Assay [2] has as its target E. coli PBP1a (Escherichia coli (strain K12), UniProt P02918). The experiment in a line: Radioligand competition binding assay with 14C-labeled boronic acid probe, PBP1a. The source says: To determine the ability of boronic acid-based test PBP inhibitors to bind Penicillin Binding Proteins (PBPs), a radio-labelled boronic acid PBP inhibitor
[drawing 751] was used in competition binding assays to determine boronic acid PBP inhibitor binding to PBP1a or PBP1b from Escherichia coli. PBP1a and PBP1b were purified as described previously (Bertsche, U.; et al., J. Biol. Chem. 2005, 280 (45), 38096-38101; Born, P.; et al., J. Biol. Chem. 2006. 281 (37), 26985-26993). To establish assay conditions for competition binding, an enzyme titration/saturation binding experiment was performed. Saturation binding was performed in a buffer comprised of 20 mM Tris (pH 7.5), 500 mM NaCl and 0.1% (v/v) TritonX-100, with PBP1a/PBP1b at a final concentration of 0.1 μM and Compound A at final concentrations ranging from 0-100 μM. Mixtures were incubated for 60 minutes, then applied to Zeba Spin Desalting columns or plates (ThermoFisher Scientific) and centrifuged at 1000-1500×g for 2 minutes. The flow through, containing PBP bound with Compound A, was recovered and 100 μL mixed with 5 mL of UltimaGold liquid scintillation cocktail (Perkin Elmer), and the radioactivity counted using a Beckman Coulter LS 6500 Multipurpose scintillation counter. PBP binding of Compound A approached saturation at 20 μM of ^14C-labeled probe. The competition binding assay was validated using the beta-lactam ampicillin, with Compound A at a final concentration of 20 μM, PBP1a/PBP1b at a final concentration of 0.1 μM. PBP1a/PBP1b was incubated with ampicillin in a 96-well microplate for 60 minutes, then Compound A was added and the mixtures incubated for an additional 60 minutes. The mixtures were then applied to Zeba Spin desalting plates and centrifuged at 1000×g for 2 minutes. The flow through was recovered and 100 μl mixed with 5 ml of UltimaGold liquid scintillation cocktail and the radioactivity counted. […] Binding assays with boronic acid PBP inhibitors were performed in an identical fashion. The potency of boronic acid PBP inhibitors was reported as the EC50 value.
On the technique in general: Loss of bound radioactivity is the signal in a displacement assay; it reports binding, not function.

Assay [3] relates to engineered strain of Escherichia coli harboring CTX-M15. Briefly: microbe, parasite or virus in culture. It counts as cell-based. Conditions: Escherichia coli, read-out: Microbiological Activity (MIC in mg/L), E. coli DH5α/pLBII-CTX-M15, engineered strain producing CTX-M15.
In assay [4] the test system is E. coli DH5α empty pLBII vector control strain. Briefly: microbe, parasite or virus in culture. In kind it is cell-based, Escherichia coli. The following applies: Escherichia coli, read-out: Microbiological Activity (MIC in mg/L), E. coli DH5α/pLBII. An outline of the steps: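 Broth microdilution in cation-supplemented Mueller-Hinton broth used a starting inoculum of 5×10^5 CFU/mL of E. coli DH5α carrying empty pLBII vector. Plates were incubated 16–20 h at 37 °C. MIC was read visually as the lowest concentration showing no growth.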

Assay [5] has as its target E. coli PBP1b (Escherichia coli (strain K12), UniProt P02919). The experiment in a line: Radioligand competition binding assay with 14C-labeled boronic acid probe, PBP1b.
The subject of assay [6] is E. coli ATCC 25922. Briefly: Broth microdilution MIC, E. coli ATCC 25922. In kind it is cell-based. The following applies: Escherichia coli, ATCC25922; E. coli ATCC 25922, broth microdilution; read-out: MIC E. coli 25922. An outline of the steps:
(§1)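 Colonies from Mueller Hinton II agar were grown 3-5 hours at 37° C in cation-supplemented broth, adjusted by OD600, then added to 2-fold compound dilutions at 5×10^5 CFU/mL. After 16-20 hours at 37° C, MICs were scored visually.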

Assay [7] concerns E. coli AG100. The experiment in a line: Broth microdilution MIC, E. coli AG100 (wild-type parent). In kind it is cell-based. The following applies: Escherichia coli; wild-type parent E. coli AG100, broth microdilution; read-out: MIC E. coli AG100. In a few lines:
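Broth microdilution in cation-supplemented Mueller-Hinton broth, 2-fold serial compound dilutions, inoculum 5×10^5 CFU/mL from 3-5 h log culture.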

In assay [8] the test system is E. coli 901C. The experiment in a line: microbe, parasite or virus in culture. It counts as cell-based. The following applies: Escherichia coli; hyper-permeable E. coli 901C, broth microdilution; read-out: MIC E. coli 901C. An outline of the steps: as §1
For orientation: Broth dilution looks for growth in wells or tubes with falling amounts of substance.

In assay [9] the test system is E. coli AG100A. The experiment in a line: microbe, parasite or virus in culture. It counts as cell-based. Conditions: Escherichia coli, read-out: MIC E. coli AG100A. In a few lines:
as §1

Assay [10] relates to K. pneumoniae UMM. The experiment in a line: microbe, parasite or virus in culture. In kind it is cell-based. The following applies: Klebsiella pneumoniae; K. pneumoniae UMM producing SHV-5 and KPC-2; read-out: MIC K. pneumoniae UMM. An outline of the steps:
as §1

Assay [11] relates to E. coli D22. The experiment in a line: microbe, parasite or virus in culture. It counts as cell-based. The following applies: Escherichia coli; hyper-permeable E. coli D22, broth microdilution; read-out: MIC E. coli D22. In a few lines: as §1
Assay [12] has as its system K. pneumoniae SI-117. The experiment in a line: microbe, parasite or virus in culture. It counts as cell-based. The following applies: Klebsiella pneumoniae, SI117, read-out: MIC K. pneumoniae SI-117. In a few lines: as §1
In assay [13] the test system is K. pneumoniae 848844. Briefly: microbe, parasite or virus in culture. It counts as cell-based, Klebsiella pneumoniae. The following applies: Klebsiella pneumoniae; K. pneumoniae 848844 producing SHV-11 and KPC-2; read-out: MIC K. pneumoniae 848844. In a few lines: as §1
Setting [14] is: fluorescence polarization competition binding with Bocillin-FL, read-out: E. coli K12 PBP3 Potency.

In brackets after ≈: the same amount, converted by molar mass. Where a name gives a salt, the structure may show the parent alone. Read-outs that look alike come from different tables or passages of the source.

Chain of E. coli PBP1a (P02918 whole entry): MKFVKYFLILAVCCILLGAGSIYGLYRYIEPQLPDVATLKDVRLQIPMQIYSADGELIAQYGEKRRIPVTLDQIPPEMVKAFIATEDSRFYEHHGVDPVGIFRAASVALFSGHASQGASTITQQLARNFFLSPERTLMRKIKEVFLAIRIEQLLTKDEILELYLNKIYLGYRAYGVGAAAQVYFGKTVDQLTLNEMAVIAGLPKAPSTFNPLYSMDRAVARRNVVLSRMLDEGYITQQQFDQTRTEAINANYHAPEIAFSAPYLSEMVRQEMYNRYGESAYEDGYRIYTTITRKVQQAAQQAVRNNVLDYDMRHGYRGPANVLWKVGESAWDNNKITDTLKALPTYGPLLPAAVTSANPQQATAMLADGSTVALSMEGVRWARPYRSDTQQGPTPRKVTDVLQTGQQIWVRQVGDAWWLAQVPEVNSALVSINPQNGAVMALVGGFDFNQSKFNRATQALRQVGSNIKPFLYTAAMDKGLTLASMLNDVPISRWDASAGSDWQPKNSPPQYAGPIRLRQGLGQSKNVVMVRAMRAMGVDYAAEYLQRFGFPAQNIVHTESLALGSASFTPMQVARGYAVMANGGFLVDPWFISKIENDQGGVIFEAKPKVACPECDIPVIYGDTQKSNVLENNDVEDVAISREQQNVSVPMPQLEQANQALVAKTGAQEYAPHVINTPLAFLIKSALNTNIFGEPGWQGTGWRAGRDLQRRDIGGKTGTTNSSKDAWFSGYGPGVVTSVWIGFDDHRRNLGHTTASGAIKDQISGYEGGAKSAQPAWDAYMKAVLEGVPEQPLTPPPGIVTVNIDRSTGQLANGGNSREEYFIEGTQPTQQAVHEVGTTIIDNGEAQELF
Chain of E. coli PBP1b (P02919 whole entry): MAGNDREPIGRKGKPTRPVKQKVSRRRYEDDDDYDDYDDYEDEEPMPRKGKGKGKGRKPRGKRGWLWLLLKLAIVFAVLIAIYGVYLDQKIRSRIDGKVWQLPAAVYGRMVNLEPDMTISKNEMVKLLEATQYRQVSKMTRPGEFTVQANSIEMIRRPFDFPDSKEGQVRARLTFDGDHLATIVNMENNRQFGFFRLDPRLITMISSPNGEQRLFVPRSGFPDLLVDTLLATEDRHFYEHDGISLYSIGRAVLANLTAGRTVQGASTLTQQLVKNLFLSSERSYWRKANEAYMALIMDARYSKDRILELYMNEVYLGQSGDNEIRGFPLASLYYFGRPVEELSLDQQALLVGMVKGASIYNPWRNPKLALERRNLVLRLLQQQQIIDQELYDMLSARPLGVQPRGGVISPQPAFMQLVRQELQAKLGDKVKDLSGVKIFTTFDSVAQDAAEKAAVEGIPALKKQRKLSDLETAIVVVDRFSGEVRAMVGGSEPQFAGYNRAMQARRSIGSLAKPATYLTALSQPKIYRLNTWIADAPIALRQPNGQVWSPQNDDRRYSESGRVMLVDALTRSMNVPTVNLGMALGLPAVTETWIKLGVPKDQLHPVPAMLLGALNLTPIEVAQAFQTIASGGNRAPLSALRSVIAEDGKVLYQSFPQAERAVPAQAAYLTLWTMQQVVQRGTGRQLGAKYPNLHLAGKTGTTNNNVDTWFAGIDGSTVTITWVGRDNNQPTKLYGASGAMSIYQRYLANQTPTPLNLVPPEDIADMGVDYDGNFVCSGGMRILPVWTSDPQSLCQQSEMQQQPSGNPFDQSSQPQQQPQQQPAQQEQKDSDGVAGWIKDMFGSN

Consider `CCN1CCN(C(=O)N[C@H](CCN)C(=O)N[C@H]2Cc3cccc(C(=O)O)c3OB2O)C(=O)C1=O` [Example 17, (R)-3-((R)-4-amino-2-(4-ethyl-2,3-dioxopiperazine-1-carboxamido)butanamido)-2-hydroxy-3,4-dihydro-2H-benzo[e][1,2]oxaborinine-8-carboxylic acid, trifluoroacetic acid salt], for which the EC50 in assay [1] (setting [14]) is over 500 µM; in assay [2] it was under 10 µM. Besides, the MIC is 128 to 256 mg/L in assay [3] and over 512 mg/L in [4].

For `CCN1CCN(C(=O)NC(C(=O)N[C@H]2Cc3cccc(C(=O)O)c3OB2O)c2ccc(O)c(O)c2)C(=O)C1=O` (stereo partly drawn) [Example 22, (3R)-3-(2-(3,4-dihydroxyphenyl)-2-(4-ethyl-2,3-dioxopiperazine-1-carboxamido)acetamido)-2-hydroxy-3,4-dihydro-2H-benzo[e][1,2]oxaborinine-8-carboxylic acid], the values for the EC50 in [1] (setting [14]), in [2] and in [5] were under 30 µM, under 10 µM and under 10 µM, respectively. The MIC in [6] was 8 to 16 µg/mL; in [7], 8 to 16 µg/mL; in assay [8], 0.5 to 1 µg/mL; in [9], 2 to 4 µg/mL; in assay [10] it was 8 to 16 µg/mL; in [3], 8 to 16 mg/L (≈ 14.8 to 29.6 µM). Moreover, the MIC in assay [4] is 8 to 16 mg/L (≈ 14.8 to 29.6 µM).

With `CCN1CCN(C(=O)NC(C(=O)N[C@H]2Cc3cccc(C(=O)O)c3OB2O)c2ccc(OC)cc2)C(=O)C1=O` (stereo partly drawn) [Example 26, (3R)-3-(2-(4-ethyl-2,3-dioxopiperazine-1-carboxamido)-2-(4-methoxyphenyl)acetamido)-2-hydroxy-3,4-dihydro-2H-benzo[e][1,2]oxaborinine-8-carboxylic acid], the figures for the EC50 in assay [1] and in [2] were 30 to 500 µM and under 10 µM, respectively. In addition, the MIC in assay [3] and in [4] was 128 to 256 mg/L (≈ 238 to 476 µM) in each case.

Consider `CCN1CCN(C(=O)NC(C(=O)N[C@H]2Cc3cccc(C(=O)O)c3OB2O)c2cc(O)c(O)c(Cl)c2)C(=O)C1=O` (stereo partly drawn) [Example 45, (3R)-3-(2-(3-chloro-4,5-dihydroxyphenyl)-2-(4-ethyl-2,3-dioxopiperazine-1-carboxamido)acetamido)-2-hydroxy-3,4-dihydro-2H-benzo[e][1,2]oxaborinine-8-carboxylic acid], for which the figures for the EC50 in assay [1] (setting [14]), in assay [2] and in assay [5] were under 30 µM, under 10 µM and under 10 µM, respectively. In addition, the MIC lay within 8 to 16 µg/mL in [6]; 8 to 16 µg/mL in [7]; 0.5 to 1 µg/mL in assay [8]; 8 to 16 µg/mL in [9]; 8 to 16 µg/mL in assay [10]; 8 to 16 mg/L (≈ 13.9 to 27.8 µM) in assay [3]. In [4], the MIC lay in the range of 8 to 16 mg/L (≈ 13.9 to 27.8 µM).

Consider `CCN1CCN(C(=O)NC(C(=O)N[C@H]2Cc3cccc(C(=O)O)c3OB2O)c2ccc(O)c(OCCN)c2)C(=O)C1=O` (stereo partly drawn) [Example 49, (3R)-3-(2-(3-(2-aminoethoxy)-4-hydroxyphenyl)-2-(4-ethyl-2,3-dioxopiperazine-1-carboxamido)acetamido)-2-hydroxy-3,4-dihydro-2H-benzo[e][1,2]oxaborinine-8-carboxylic acid], for which the EC50 in assay [1] was 30 to 500 µM; in [2], under 10 µM. Moreover, the MIC in [4] was 32 to 64 mg/L (≈ 54.9 to 110 µM).

With `CCN1CCN(C(=O)NC(C(=O)N[C@H]2Cc3cccc(C(=O)O)c3OB2O)c2cc(O)c(O)cc2Cl)C(=O)C1=O` (stereo partly drawn) [Example 85, (3R)-3-(2-(2-chloro-4,5-dihydroxyphenyl)-2-(4-ethyl-2,3-dioxopiperazine-1-carboxamido)acetamido)-2-hydroxy-3,4-dihydro-2H-benzo[e][1,2]oxaborinine-8-carboxylic acid], the EC50 in assay [2] and in assay [5] was under 10 µM throughout. The MIC in assay [6] was 8 to 16 µg/mL; in [7], 8 to 16 µg/mL; in assay [8], 0.5 to 1 µg/mL; in assay [9] it was 8 to 16 µg/mL; in assay [10], 32 to 64 µg/mL; in assay [3] it was 32 to 64 mg/L (≈ 55.7 to 111 µM).

`Nc1ncc(C(NC(=O)N2CCN(CCF)C(=O)C2=O)C(=O)N[C@H]2Cc3cccc(C(=O)O)c3OB2O)s1` (stereo partly drawn) [Example 100, (3R)-3-(2-(2-aminothiazol-5-yl)-2-(4-(2-fluoroethyl)-2,3-dioxopiperazine-1-carboxamido)acetamido)-2-hydroxy-3,4-dihydro-2H-benzo[e][1,2]oxaborinine-8-carboxylic acid]: the EC50 in [1] was 30 to 500 µM; in [2], 10 to 100 µM. Moreover, the MIC in [6] lay within 32 to 64 µg/mL; in [7], 32 to 64 µg/mL; in assay [8], 0.5 to 1 µg/mL; in assay [9], 2 to 4 µg/mL; in assay [11], 8 to 16 µg/mL; in [12] it was 8 to 16 µg/mL. Moreover, the MIC in [10] fell in the range of 8 to 16 µg/mL; in [13], 32 to 64 µg/mL; in [3] it was 8 to 16 mg/L (≈ 14.6 to 29.2 µM).

Turning to `CC1(C)S[C@@H]2[C@H](NC(=O)[C@H](N)c3ccccc3)C(=O)N2[C@H]1C(=O)O` [ampicillin, reference compound], the EC50 in assay [1] (assay validation with beta-lactams, PBP 1.5 μM, Bocillin-FL 0.1 μM, read-out: EC50 for PBP3 (reduction of Bocillin-FL binding)) is 1.4 µM; in [2] (assay validation, Compound A 20 μM, PBP1a/PBP1b 0.1 μM, read-out: EC50 (inhibition of binding of Compound A) PBP1a) it was under 0.5 µM; in assay [5] (assay validation, Compound A 20 μM, PBP1a/PBP1b 0.1 μM, read-out: EC50 (inhibition of binding of Compound A) PBP1b) it was under 0.5 µM.
